This assay relates to CEM cells HIV-1 protection, formazan growth assay. The assay is described as follows: NCI AIDS Antiviral Assay. Conditions: for IC50: measured here: growth of uninfected CEM cells. Summed up: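 Soluble formazan readout of cell growth; CEM cells ± HIV-1; 5 drug concs. ≥50% protection → retest; ≥50% again = moderately active; reproducible 100% = confirmed active.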

Where “and” joins values, the source holds several entries; their conditions need not be identical. Identical values can stand only once. Calls of active or inactive are those of the source.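 How the source made its calls: active means compounds giving half or more protection of infected cells from virus-caused growth loss, again on retest; inactive means the rest.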 Where a SMILES comes first, the peptide text is derived from it. The star is where a group is joined. Cbz = O=C(OCc1ccccc1)*; Boc = CC(C)(C)OC(=O)*; OSu = O=C1CCC(=O)N1O*; Bn = c1ccc(C*)cc1

Usually EC50 stands for the midpoint of the concentration-response curve. One may read the IC50 as the concentration needed to halve the response being measured. Higher therefore signals a need for much substance. Take `O=[N+]([O-])c1ccccc1Sc1ccc(Cl)cc1`: the EC50 was more than 135 µM and the IC50 came to 38.9 µM. Taken in the same sequence, the figures for `CCOC(=O)/C(C#N)=C(O)/C(=C\c1ccc(Br)cc1)NC(=O)c1ccccc1` were more than 562 µM and more than 562 µM. Taken in the same sequence, the figures for `Cc1cccc(NC2=NCCO2)c1Cl` were more than 200 µM and 105 µM. Consider `O=c1oc2ccccc2c(O)c1Cc1cccc(Cc2c(O)c3ccccc3oc2=O)c1`, for which the result was active. Regarding `OC(C#CC(O)(c1ccccc1)c1ccccc1)(c1ccccc1)c1ccccc1`, the EC50 was more than 200 µM and the IC50 stood at 11 µM.

On to `CC[N+](C)(C)c1ccc(C(=C2C=CC(=[N+](C)C)C=C2)c2ccc(N(C)C)cc2)cc1`, for which the result was inactive. Take `O=C(CCCN1CCC2(CC1)CC(=O)N(N1CCCCCC1)C2=O)c1ccccc1`: the EC50 was more than 200 µM and the half-inhibitory concentration (IC50) stood at 182 µM. The like results for `CCOC(=O)CCC(NC(=O)OCc1ccccc1)C(=O)NC(CCC(=O)OCC)C(=O)OCC` (stereo not drawn) (Cbz-Glu(OEt)-Glu(OEt)-OEt; configuration not given here) were, in that order, more than 200 µM and more than 200 µM. Taken in the same sequence, the figures for `CN(N)c1nc(N)c(C#N)c(C#N)c1C#N` were more than 100 µM and more than 100 µM. The like results for `O=S(=O)(c1ccc(Br)cc1)S(=O)(=O)c1ccc(Br)cc1` were, in that order, more than 11.7 µM and more than 11.7 µM.

Consider `COC(=O)C(CCC1(C)OCCO1)=[N+]=[N-]`, for which the EC50 was more than 251 µM and the IC50 is more than 251 µM.

As for `O=C(OCc1ccccc1)N1N=NC2C1C1CC(OCc3ccccc3)(OCc3ccccc3)C2O1` (stereo not drawn), the EC50 is more than 14.8 µM and the IC50 is more than 14.8 µM. Consider `CC(=O)OCC1OC(OCC2OC(N3C(=S)N[C@H]([C@@H](O)[C@H](O)[C@H](O)CO)[C@H]3O)C(OC(C)=O)C(OC(C)=O)C2OC(C)=O)C(OC(C)=O)C(OC(C)=O)C1OC(C)=O` (stereo partly drawn), for which the EC50 is more than 100 µM and the IC50 is more than 100 µM.

As for `CC(C)(C)OC(=O)NC(Cc1ccc(OCc2ccccc2)cc1)C(=O)NC(CCCCNC(=O)OCc1ccccc1)C(=O)ON1C(=O)CCC1=O` (stereo not drawn) (Boc-Tyr(Bn)-Lys(Cbz)-OSu; configuration not given here), the EC50 was more than 200 µM and the IC50 came out at 36.3 µM. `CN1CC2=C(NCNS2(=O)=O)N(C)C1`: the EC50 is more than 148 µM and the IC50 is more than 148 µM. As for `COC(=O)C(=O)C(/C(=N/N)C(=O)Nc1ccccc1C(N)=O)c1nc2ccc([N+](=O)[O-])cc2[nH]c1=O` (stereo not drawn), the EC50 is more than 501 µM and the IC50 worked out at 204 µM. Taken in the same sequence, the figures for `CC(C)(C)c1cc(C(=O)/C=C/c2ccccc2)cc(C(C)(C)C)c1O` were more than 21.4 µM and more than 21.4 µM.

For `COc1ccc(C(=O)c2ccc(OC)c(S(=O)(=O)O)c2)cc1S(=O)(=O)O`, the EC50 was more than 575 µM and the IC50 was more than 575 µM.

For the molecule `COc1cc(/C=C/C(=N\NC(=S)NN)c2sc(NNC(C)=O)nc2C)ccc1O`, the EC50 is more than 12 µM and the IC50 is more than 12 µM. Regarding `Nc1nc(N)c2c(-c3ccccc3)ccnc2n1`, the EC50 is more than 195 µM and the IC50 is 162 µM. On to `CCOC(F)(F)/C=C/c1ccccc1`, for which the result was inactive.

As to `O=C(/C=C/C(Cl)(Cl)Cl)Nc1ccc(Cl)cc1`, the EC50 was more than 200 µM and the IC50 was 10.2 µM. In the case of `COc1ccccc1N=Nc1c(S(=O)(=O)O)cc2cc(NC(=O)Nc3ccc4c(O)c(N=Nc5ccc(S(=O)(=O)O)cc5C)c(S(=O)(=O)O)cc4c3)ccc2c1O`, the result was active. `COC1OC(COC(=O)NCCCCC(=O)C(F)(F)C(F)(F)C(F)(F)C(F)(F)C(F)(F)C(F)(F)C(F)(F)F)C(O)C(O)C1O` (stereo not drawn): the EC50 was more than 200 µM; the IC50 was 2.95 µM and 6.03 µM. Regarding `Cc1cc(=O)c2c(O)c3c(O)cc(O)c4c5c(O)cc(O)c6c(O)c7c(=O)cc(C)c8c1c2c(c34)c(c65)c78`, the EC50 was more than 100 µM.

In the case of `O=c1ssc(Cl)c1Cl`, the EC50 was more than 200 µM and the IC50 was 33.9 µM.

Turning to `CN(C)CCC(=O)/C=C\c1ccccc1`, the result was inactive.

In the case of `CCOC(=O)c1c(C)[nH]c(=S)c(C#N)c1-c1ccc(OC)cc1`, the EC50 is more than 200 µM and the IC50 came to 81.3 µM. The like results for `COC(=O)C(=O)C(C(C)=O)C(=O)NCc1ccccc1` (stereo not drawn) were, in that order, 47.9 µM and 67.6 µM. Turning to `Clc1ccc(-c2nnc(C34CC5CC(CC(C5)C3)C4)o2)cc1`, the EC50 is more than 200 µM and the IC50 was more than 200 µM. With `CCOC(=O)/C(C#N)=C\Sc1ccccc1`, the result was inactive. Consider `COC(=O)C1Cc2cc3c(cc2C1=O)CCC3` (stereo not drawn), for which the EC50 is more than 200 µM and the IC50 came out at 135 µM. On to `CCC1(C(=O)OC)CCc2c(OC)ccc(OC)c2C1=O` (stereo not drawn), for which the result was inactive. For the molecule `COC(=O)C(Cc1cc(OC)c(OC)c(OC)c1)C(=O)OC`, the EC50 is more than 302 µM and the IC50 is more than 302 µM. As to `Clc1ccc2noc(-c3ccccc3)c2c1`, the EC50 was more than 22.9 µM and the IC50 was more than 22.9 µM. On to `CCOP(=O)(OCC)C(c1ccccc1)N(C(=O)NC(F)(F)F)c1cccc(F)c1` (stereo not drawn), for which the EC50 is more than 200 µM and the IC50 turned out to be 95.5 µM.

With `CCOC(=O)OC(=S)N(C1CCCCC1)C1CCCCC1`, the EC50 is more than 200 µM and the IC50 was 97.7 µM.

For the molecule `COC(=O)C(Cc1cn(C(C)n2cc(CC(NC(C)=O)C(=O)OC)c3ccccc32)c2ccccc12)NC(C)=O` (stereo not drawn), the EC50 is more than 81.3 µM and the IC50 was 74.1 µM.

In the case of `CC1=NN(C(=O)CC(=O)Nc2cccc(C)c2)C(=O)C1N=Nc1ccc(C(=O)O)cc1` (stereo not drawn), the EC50 was more than 200 µM and the IC50 is 28.2 µM. The like results for `CC(C)=CCC[C@@H](C)C1=C(O)C(c2c(I)c(=O)n(C)c(=O)n2C)=C(C)C(=O)C1=O` were, in that order, more than 200 µM and 112 µM. The like results for `Cc1cc2ccc3c(c2oc1=O)[C@@H](OC(=O)C12CCC(C)(C(=O)O1)C2(C)C)[C@@H](OC(=O)C12CCC(C)(C(=O)O1)C2(C)C)C(C)(C)O3` (stereo partly drawn) were, in that order, 0.209 µM and 18.6 µM.

For the molecule `CC1(C)N=C(/C(Cl)=[N+](/[O-])C(=O)c2ccc(F)cc2)C(C)(C)N1O`, the EC50 is more than 200 µM and the half-inhibitory concentration (IC50) was 51.3 µM. In the case of `Cc1ccc(C2(O)c3ccccc3N=NN2C)cc1` (stereo not drawn), the EC50 was more than 269 µM and the IC50 is 105 µM.

As for `CCn1c(C)nc2c(N)cccc2c1=O`, the EC50 is more than 1230 µM and the IC50 is more than 1230 µM. On to `CC(C)CC(C[C@@H](O)[C@H](Cc1ccccc1)NC(=O)O[C@H]1CCOC1)S(=O)(=O)c1ccccc1` (stereo partly drawn), for which the EC50 was 38.9 µM and the IC50 worked out at 112 µM. For the molecule `CCOC(=O)C(C(=O)OCC)C1(c2ccccc2)OC(=O)c2ccccc21` (stereo not drawn), the result was inactive. Consider `CCCC(OCC)(OCC)OCC`, for which the EC50 is more than 1320 µM and the IC50 was more than 1320 µM. Consider `O=C1/C(=C/c2ccc(F)cc2)CCc2ccccc21`, for which the EC50 is more than 10.7 µM and the IC50 was more than 10.7 µM. On to `NCCS/C=C\C(=O)O`, for which the EC50 was more than 1700 µM and the IC50 is more than 1700 µM.

Regarding `CC1=N/C(=C\c2cccc([N+](=O)[O-])c2)C(=O)O1`, the EC50 was more than 562 µM and the IC50 is more than 562 µM.

As for `Cc1cc(C)n(C2=NS(=O)(=O)c3ccccc3N2C)n1`, the EC50 was more than 123 µM and the IC50 was more than 123 µM.

(Values after PubChem BioAssay AID179 (DTP/NCI, 2004).)
